We go through three compounds from patent publication US9782383B2, “Prophylactic and therapeutic agent for attention-deficit/hyperactivity disorder” (FUJIMOTO CO., LTD., priority 2013, dated 2017).

Data set [1] has as its system SHRSP/Ezo rats. Kind of data set: Y-maze test (inattentive behavior). It is filed as in vivo, rat. Here is the method:
(§1) In all the tests described herein, the R configuration (−) substance hydrochloride salt of the compound for use in the invention (hereinafter referred to as “BPAP” in some cases) as the test material and methylphenidate hydrochloride (SIGMA Aldrich) as the comparative drug were dissolved in saline, diluted to a volume of 2 ml/kg before administration, and systemically administered into six-week-old male SHRSP/Ezo rats 30 minutes before behavior tests. Note that BPAP was subcutaneously (s.c.) administered, and methylphenidate was subcutaneously (s.c.) or intraperitoneally (i.p.) administered after the confirmation that there was no difference between the two routes, i.e., the s.c. and i.p. administration.
The short-term working memory was evaluated as a spontaneous alternation behavior using a Y-maze (45 (length)×10 (width)×35 cm (height)). The spontaneous alternation is a behavior based on the habit of a rodent preferring to investigate a new arm of the maze rather than returning to one that was previously visited in the Y-maze. In order to select three different arms continuously, it is necessary to remember the previously visited arm. To achieve this, therefore, the short-term working memory is considered indispensable. Because the processes of the short-term working memory are closely related to an appropriate amount of attention toward achievement of the task, the short-term working memory implicates aspects of attention. Thus, the Y-maze test was carried out to evaluate the inattentive behavior in SHRSP/Ezo rats.
The spontaneous alternation was measured according to the method by Sarter et al. (Psychopharmacology (Berl), 94:491-5 (1988)) using the following procedure. Under a 200-lux illuminance condition, each rat was placed in the center of the crossing point of the three arms and allowed to enter the maze arm freely for eight-minute test session, and the sequence of arm entries was recorded. The alteration behavior was defined as the consecutive entry into three arms, i.e. the combination of three different arms, with stepwise combinations in the sequence. The percentage obtained by dividing the spontaneous alternation behavior by the total number of arm entries (total arm entries) minus 2 was determined as the spontaneous alternation behavior rate (alternation rate). For example, assuming that the rat has entered the arms A, B, and C of the Y-maze in the order of ACBABACBAB, the spontaneous alternation behavior is five (ACB, CBA, BAC, ACB, and CBA), the total number of arm entries is ten, and the spontaneous alternation behavior rate is 62.5%. To consider the influence of variations in spontaneous alternation behavior rate among groups during the baseline (drug-untreated) period on the drug efficacy evaluation, the first Y-maze test was carried out three days before the drug efficacy evaluation, and grouping was performed based on the result of spontaneous alternation behavior rates in the 1st Y-maze test.
(§2) Data were represented as the means±standard errors. Student's t-test was used for the statistics analysis, and a P value below 5% was considered statistically significant.

In data set [2] the test system is SHRSP/Ezo rats. Put plainly: Elevated-plus maze test (impulsivity). It is filed as in vivo, rat. Here is the method:
as §1
The anxiety-related behavior was evaluated using an elevated plus maze (open arm: 50 (length)×10 cm (width), enclosed arm: 50 (length)×10 (width)×40 cm (height), height above the floor: 50 cm). The device is constituted by a wall-less open arm and a wall-surrounding enclosed arm crossing each other at right angles at a height of 50 cm above the floor. An animal staying in an open arm is exposed to anxiety in the elevated wall-less open state. […] The elevated-plus maze test reflects an equilibrium state between the approach behavior (curiosity) and the avoidance behavior driven by anxiety in an animal, and thus is generally used for the evaluation of the anxiety level of an animal.
In this experiment, under a 200-lux illuminance condition, a rat was placed in the center of the crossing point of two sets of arms and allowed to enter freely into the maze for a ten-minute test session. The total number of arm entries (total arm entries), the time spent in open arms and the rate of open arm entries were analyzed by a video tracking system for behavioral experiments (LimeLight Actimetrics).
as §2

The test system of data set [3] is SHRSP/Ezo rats. Kind of data set: Open field test (hyperactivity, inner zone spent time). Type of data set: in vivo, rat. Here is the method:
as §1
The spontaneous locomotor activity in a new environment was evaluated using an open-field apparatus (90 (width)×90 (depth)×40 cm (height), 81 squares).
In this experiment, under a 200-lux illuminance condition, rats were placed in the center of the open field and allowed to move freely in the field for a 60-minute test session, and the horizontal activities (crossings: the number of squares crossed) during the exploration was analyzed by a video tracking system for behavioral experiments (LimeLight Actimetrics, USA).
as §2
Since the spent time in the inner zones (nine compartments in the center) (inner zone spent time) in the open field test is used for the evaluation of the anxiety level, the spent times per time (sec/15 min) and per behavior (sec/count) corrected with the locomotor activity (total crossings) were analyzed as the secondary evaluation in the open field test (FIG. 3). […] SHRSP/Ezo rats show an increase in spent time in the inner zone at the habituated phase during which hyperactivity was observed, indicating a reduction in anxiety level at the habituated phase. […] However, 0.3 mg/kg of BPAP had no effect on the reduction in anxiety level at habituated phase.

Data set [4] concerns ADHD model rats or normal rats. Kind of data set: Locomotor activity in ADHD model rats or normal rats. It is filed as in vivo, rat. The note with it: high dose.
For data set [5], the system named is human monoamine transporters (DAT, NET, SERT). Kind of data set: Affinity for human monoamine transporters. The note with it: for order of affinities for human monoamine transporters: highest first. Type of data set: binding.
Another data set concerns rats. Kind of data set: Methamphetamine-seeking behavior in rats.
For data set [6] the following is noted: human, in vivo; cited from earlier work.
For data set [7] the following is noted: human, in vivo; cited from earlier work. The source holds these as a separate data set.
For data set [8], the system named is ADHD model rats or normal rats. The settings on record: cited from earlier work; for locomotor activities: increasing doses.
Data set [9] has as its system human monoamine transporters (DAT, NET, SERT). The note with it: highest first; Neuropsychopharmacology 27: 699-711 (2002); cited from earlier work.
The next data set deals with ADHD patients. The note with it: cited from earlier work.
Where [10] appears, read: 1 mg/kg as comparative drug (FIG. 1).
[11] abbreviates: 1 mg/kg as comparative drug (FIG. 2).

Read-outs that look alike come from different tables or passages of the source.

Regarding `CCCNC(CCC)Cc1cc2ccccc2o1` (single isomer, unassigned; (-)) [BPAP, (−)-1-(benzofuran-2-yl)-2-propylaminopentane], the impaired alternation behavior result with SHRSP/Ezo rats [1] (s.c., 0.03 mg/kg) is listed as “no improvement action was observed”. In addition, the “total number of arm entries compared with the first trial (Y1)” value with SHRSP/Ezo rats [1] (s.c., 0.03 to 0.3 mg/kg) is listed as “significantly decreased”. Besides, the impaired alternation behavior result with SHRSP/Ezo rats [1] (s.c., 0.1 to 0.3 mg/kg) is “significantly improved”. The “rate of open arm entries” value in the data set with SHRSP/Ezo rats [2] (s.c., 0.1 mg/kg (P=0.08)) is “tendency to reduce”. The “spent time on the open arms per total number of arm entries” value with SHRSP/Ezo rats [2] (s.c., 0.1 mg/kg, secondary analysis) is on record as “significantly reduced”. For the same compound, the “extension of the spent time on the open arms” value with SHRSP/Ezo rats [2] (s.c., 0.01 to 0.3 mg/kg) is “no effect”. In the data set with SHRSP/Ezo rats [3] (s.c., 0.3 mg/kg), the “locomotor activity at the exploration phase” value is given as “no action”, the “locomotor activity at the habituated phase” value is listed as “no action” and the “reduction in anxiety level (inner zone spent time) at habituated phase” value was “no effect”. Besides, in the data set with SHRSP/Ezo rats [3] (s.c., 0.01 to 0.1 mg/kg), the “increase in behavior at the habituated phase” value is recorded as “significantly inhibited”, the “inner zone spent time at the habituated phase” value is reported as “significantly reduced” and the “locomotor activity at the exploration phase” value is given as “without affecting”. Moreover, the spontaneous locomotor activity entry in data set [4] is “increases”. Besides, in data set [5] (compared with methylphenidate), the “relative affinity NET/DAT” value is “substantially equal” and the “relative affinity for SERT (SERT/DAT)” value is on record as “higher”. Further, in data set [5], the “order of affinities for human monoamine transporters” value (“order of affinities” below) was “DAT>NET>serotonin transporter (SERT)”. Further, the methamphetamine-seeking behavior result with rats (due to drug-associated cues and methamphetamine-priming) is reported as “inhibition action”. For the same compound, in the data set on rats (effective dose), the “induction of methamphetamine-seeking behavior (dependence liability)” value was “did not induce”.
`CNCC[C@@H](Oc1ccccc1C)c1ccccc1` [atomoxetine]: in data set [6], the abdominal pain is recorded as 12.2% and the headache is reported as 22.3%. In [7], the dry mouth is 13.8% and the headaches was 10.5%. For the same compound, in [8], the “locomotor activities during an exploration period” value is reported as “decreases” and the locomotor activities entry is listed as “does not exhibit increases”. The “order of affinities” value in data set [9] is on record as “NET>SERT>DAT”.
On to `COC(=O)C(c1ccccc1)C1CCCCN1` (stereo not shown) [methylphenidate], for which, in the data set with SHRSP/Ezo rats [1] (setting [10]), the “reduction in spontaneous alternation behavior rate” value is given as “recovered” and the “total number of arm entries” value is given as “without increasing”. For the same compound, in the data set on SHRSP/Ezo rats [1] (i.p., 1 mg/kg, dose validation), the “increase in the total number of arm entries” value is given as “significant exaltation” and the “reduction in spontaneous alternation behavior rate” value is recorded as “improved”. Besides, the “increase in the total number of arm entries” value in the data set on SHRSP/Ezo rats [1] (i.p., 0.01 and 0.1 mg/kg) was “no influence”. In addition, the “reduction in spontaneous alternation behavior rate” value in the data set on SHRSP/Ezo rats [1] (i.p., 0.01 to 1 mg/kg) is recorded as “dose-dependently improved”. Further, in the data set on SHRSP/Ezo rats [2] (1 mg/kg (FIG. 4)), the “extension of the spent time on the open arms” value was “did not improve”, the “increase in the rate of open arm entries” value is listed as “did not improve” and the “increase in the total number of arm entries (hyperactivity)” value is “significant worsened”. In addition, in the data set on SHRSP/Ezo rats [2] (i.p., 0.01 to 1 mg/kg), the “extension of the open arm spent time” value is “no statistically significant change” and the “increase in the number of open arm entries” value is on record as “no statistically significant change”. Further, in the data set with SHRSP/Ezo rats [3] (1 mg/kg (FIG. 3)), the “reduction in anxiety level (inner zone spent time) at the habituated phase” value is given as “no effect” and the “spent time in the inner zone at the exploration phase” value was “significantly increased”. In the data set on SHRSP/Ezo rats [3] (setting [11]), the “hyperactivity during the exploration phase (0 to 15 minutes)” value is “worsened” and the “hyperactivity during the habituated phase (15 to 60 minutes)” value is recorded as “worsened”. The “hyperactivity (horizontal ambulatory) in open field test” value with SHRSP/Ezo rats [3] (i.p., 1 mg/kg) was “did not decreased”. Also, in the data set with SHRSP/Ezo rats [3] (i.p., 0.01 and 0.1 mg/kg), the “hyperactivity (horizontal ambulatory) in open field test” value was “significantly decreased”. The “increase in spontaneous ambulatory in open field test” value with SHRSP/Ezo rats [3] (i.p., 3 and 30 mg/kg) is recorded as “exacerbated”. The locomotor activities entry in data set [8] is “dose-dependent increases”. The “order of affinities” value in data set [5] is listed as “DAT>NET>serotonin transporter (SERT)”. Also, in the data set with ADHD patients, the “share of ADHD patients for whom the drug is ineffective” value is reported as “approximately three out of ten”.
